In patent publication US5852007A, “Cysteine and serine protease inhibitors containing D-amino acid at the P2 position, methods of making same, and methods of using same” (priority 1997, dated 1998):
Square brackets hold non-standard residues; d marks the D form. Peptide text beside a SMILES is read from it. * marks the point of attachment. ξ: configuration not given here. ξF = NC(Cc1ccccc1)C(=O)O; Bn = c1ccc(C*)cc1; Ms = CS(=O)(=O)*; CH2F = FC*

What was measured:
[1] = molecular target: T1, Recombinant human calpain I (Homo sapiens, UniProt P07384); assay: Rate of inactivation of calpain I (second order rate constant); format: biochemical; details: Table II, read-out: Calpain Inactivation Rates
T1 construct: made in house
T1 sequence (P07384 1-714): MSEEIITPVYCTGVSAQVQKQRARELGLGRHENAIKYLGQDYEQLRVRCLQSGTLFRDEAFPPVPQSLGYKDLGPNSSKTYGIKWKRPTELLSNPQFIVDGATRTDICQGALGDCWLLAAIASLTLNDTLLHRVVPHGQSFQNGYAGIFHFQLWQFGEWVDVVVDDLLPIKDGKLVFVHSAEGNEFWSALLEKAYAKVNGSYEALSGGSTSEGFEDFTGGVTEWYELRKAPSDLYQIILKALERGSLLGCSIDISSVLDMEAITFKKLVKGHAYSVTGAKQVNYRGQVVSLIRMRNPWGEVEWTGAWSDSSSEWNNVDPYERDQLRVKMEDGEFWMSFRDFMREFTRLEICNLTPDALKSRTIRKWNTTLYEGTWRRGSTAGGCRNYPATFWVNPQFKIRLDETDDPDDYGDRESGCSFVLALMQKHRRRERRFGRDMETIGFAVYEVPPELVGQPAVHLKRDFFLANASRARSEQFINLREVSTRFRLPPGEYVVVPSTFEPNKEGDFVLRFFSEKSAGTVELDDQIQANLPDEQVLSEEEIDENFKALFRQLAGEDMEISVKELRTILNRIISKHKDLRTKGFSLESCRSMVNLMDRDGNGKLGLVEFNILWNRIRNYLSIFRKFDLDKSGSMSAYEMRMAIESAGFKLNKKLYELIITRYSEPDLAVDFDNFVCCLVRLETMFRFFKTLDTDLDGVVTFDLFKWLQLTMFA
Method: To evaluate inhibitory activity, stock solutions (40 times concentrated) of exemplary compounds of the invention were prepared in 100% anhydrous DMSO and 5 μL of each inhibitor preparation were aliquoted into each of three wells of a 96-well plate. Recombinant human calpain I, prepared by the method of Meyer et al. (Biochem. J. 314: 511-519 (1996)), was diluted into assay buffer (i.e., 50 mM Tris, 50 mM NaCl, 1 mM EDTA, 1 mM EGTA, and 5 mM-mercaptoethanol, pH 7.5 including 0.2 mM Succ-Leu-TyrMNA) and 175 μL aliquoted into the same wells containing the independent inhibitor stocks as well as to positive control wells containing 5 μL DMSO, but no compound. To start the reaction, 20 μL of 50 mM CaCl2 in assay buffer was added to all wells of the plate, excepting three, which were used as background signal baseline controls. Substrate hydrolysis was monitored every 5 minutes for a total of 30 minutes. Substrate hydrolysis in the absence of inhibitor was linear for up to 15 minutes.
Inhibition of calpain I activity was calculated as the percent decrease in the rate of substrate hydrolysis in the presence of inhibitor (VI) relative to the rate in its absence (VO). Comparison between VO and VI was made within the linear range for substrate hydrolysis. For screening, compounds were tested at 10, 1.0, and 0.1 μM. Compounds having 50% inhibition at 10 μM were considered active. […] The results were plotted as % inhibition versus log inhibitor concentration and the IC50 was calculated from linear regression of the data. Apparent second order rate constants were determined from analysis of reaction progress curves under pseudo-first order conditions. Each determination represents the means of three or more independent single cuvette analyses continually monitored via a Perkin-Elmer LS50B spectrofluorimeter. […]
where y is the product formed at time t. […] The apparent second order rate constant kapp was determined as Kobs /[I]. […]

α-chymotrypsin = molecular target: T2, α-chymotrypsin (Bos taurus, UniProt P00766); assay: Inhibition of α-chymotrypsin; format: biochemical; details: Table II; 10 uM; read-out: Chymotrypsin % I @ 10 uM
T2 construct: purchased Sigma Chem. Co. C-3142
Procedure, shortened: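 Enzyme added to inhibitor first, then reaction started with substrate; no calcium activation needed as enzyme is constitutively active. Fluorogenic substrate hydrolysis read every 5 min up to 30 min ([…]).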

cathepsin L = molecular target: T3, cathepsin L (Homo sapiens, UniProt P07711); assay: Inhibition of cathepsin L; format: biochemical; details: Table II; read-out: Cat L IC50
T3 construct: purchased Calbiochem 219402
Method: (§1) Additionally,the order of reagents added to the plate was altered because both enzymes are constitutively active. Following inhibitor addition to the plates, appropriate 2× concentrated stock dilutions of the enzyme preparations were made in assay buffer and 100 μl added to each well. The assay was initiated by addition of 100 μl of 2× concentrated stock dilution of substrate in assay buffer.

thrombin = molecular target: T4, thrombin (Homo sapiens, UniProt P00734); assay: Inhibition of thrombin; format: biochemical; details: Table II; 10 uM; read-out: Thrombin % I @ 10 uM
T4 construct: purchased Sigma Chem. Co. T-7009

cathepsin B = molecular target: T5, cathepsin B (Homo sapiens, UniProt P07858); assay: Inhibition of cathepsin B; format: biochemical; details: Table II; read-out: Cat B IC50
T5 construct: purchased Calbiochem 219364
Method: as §1

spectrin breakdown = assay: Spectrin breakdown in gerbil global ischemia model (CA1 hippocampal sector, Western blotting); format: in vivo; details: FIG. 1
Method: Gerbils were anesthetized using 4% isolflurane volatilized using a gas mixture consisting of 30% O2 and 70% N2. After the induction of anesthesia, a preferred compound of the invention, compound 40 (Example 34), was administered either immediately before the induction of ischemia and 24 hours after the initiation of reperfusion (FIG. 2), or three hours after the initiation of reperfusion and 24 hours after the initiation of reperfusion (FIG. 3). To induce ischemia, the common carotid arteries were exposed and occluded bilaterally for 7 minutes. Gerbil core temperature was carefully regulated at 38° C. by a thermostatically controlled heat lamp. Reperfusion was initiated by the release of the arterial occlusion, whereupon anesthesia was terminated so that the gerbils began to breath room air. The neck incision was closed, and the gerbils were returned to the incubator for one hour to maintain their core temperature. At 1 hour of reperfusion, anesthesia was induced by inhalation of CO2 and the gerbils were sacrificed. The CA1 hippocampal sector was dissected using a hole punch (0.3 mm), and spectrin breakdown products (BDP) were determined by Western Blotting. Spectrin breakdown was quantified by image analysis, and percent inhibition was calculated by integrated optical density. […]

[2] = molecular target: T1, Recombinant human calpain I; assay: Inhibition of calpain I activity; format: biochemical; details: Table II
hippocampal CA1 neurons = assay: Survival of hippocampal CA1 neurons in gerbil global ischemia model; format: in vivo
Method: Gerbils were anesthetized using 4% isolflurane volatilized using a gas mixture consisting of 30% O2 and 70% N2. […] To induce ischemia, the common carotid arteries were exposed and occluded bilaterally for 7 minutes. Gerbil core temperature was carefully regulated at 38° C. by a thermostatically controlled heat lamp. Reperfusion was initiated by the release of the arterial occlusion, whereupon anesthesia was terminated so that the gerbils began to breath room air. The neck incision was closed, and the gerbils were returned to the incubator for one hour to maintain their core temperature. At 1 hour of reperfusion, anesthesia was induced by inhalation of CO2 and the gerbils were sacrificed.
To quantify histopathological damage, the gerbils were returned to their home cages after one hour reperfusion in the incubator and then sacrificed, as described above, four days later. The brains were rapidly removed, frozen on dry ice, and then sectioned using a cryostat. Twenty micron sections were stained with thionin, and surviving neurons in the hippocampal CA1 sector were counted using computer assisted image analysis.

T3 sequence (P07711 114-288 limits assumed): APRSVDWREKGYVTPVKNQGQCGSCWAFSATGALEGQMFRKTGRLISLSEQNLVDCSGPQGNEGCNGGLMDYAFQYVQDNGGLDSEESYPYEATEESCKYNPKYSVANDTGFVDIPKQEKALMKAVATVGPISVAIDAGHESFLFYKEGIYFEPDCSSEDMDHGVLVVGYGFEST
T3 sequence (P07711 292-333 limits assumed): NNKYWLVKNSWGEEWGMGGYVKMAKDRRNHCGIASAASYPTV

CS(=O)(=O)N[C@H](CC(=O)N1CCc2ccccc2C1)C(=O)NC(Cc1ccccc1)C(=O)CF (stereo partly drawn) [Compound 20, THIQ-2-C(=O)CH2 CH(NHS(=O)2 CH3)C(=O)-Phe--CH2 F]
kinact/KI [1]: 2800 M⁻¹ s⁻¹
inhibition at 10 µM (α-chymotrypsin): 7%
IC50 (cathepsin L): 1800 nM
inhibition at 10 µM (thrombin): 0%

CS(=O)(=O)N[C@H](CSCc1ccccc1)C(=O)NC(Cc1ccccc1)C(=O)CF (stereo partly drawn) [Compound 33, BnS--CH2 CH(NHS(=O)2 CH3)C(=O)-Phe--CH2] (Ms-[dC](Bn)-[ξF]-CH2F)
kinact/KI [1]: 26600 M⁻¹ s⁻¹
inhibition at 10 µM (α-chymotrypsin): 14%
inhibition at 10 µM (thrombin): 0%

CS(=O)(=O)N[C@H](COCc1ccccc1)C(=O)NC(Cc1ccccc1)C(=O)CF (stereo partly drawn) [Compound 34, BnO--CH2 CH(NHS(=O)2 CH3)C(=O)-Phe--CH2]
kinact/KI [1]: 21000 M⁻¹ s⁻¹
inhibition at 10 µM (α-chymotrypsin): 14%
IC50 (cathepsin L): 1800 nM
inhibition at 10 µM (thrombin): 0%

CS(=O)(=O)N[C@H](COCc1ccccc1)C(=O)N[C@H](C=O)Cc1ccccc1 [Compound 40, BnO--CH2 CH(NHS(=O)2 CH3)C(=O)-Phe--H]
IC50 (cathepsin B): 42 nM
reduction of spectrin breakdown (spectrin breakdown): approximately 50%
suppression of spectrin breakdown in CA1 hippocampal sectors (spectrin breakdown; vs vehicle-treated control gerbils, p<0.0001): statistically significant suppression of spectrin breakdown
IC50 [2]: 11 nM
inhibition at 10 µM (α-chymotrypsin): 23%
IC50 (cathepsin L): 9 nM
number of surviving hippocampal CA1 neurons relative to controls (hippocampal CA1 neurons; dosed immediately before ischemia and 24 hours after initiation of reperfusion, FIG. 2): more than doubled the number of surviving hippocampal CA1 neurons
neuroprotection at four days after the ischemic insult (hippocampal CA1 neurons; dosed immediately before ischemia and 24 hours after initiation of reperfusion, p<0.01, FIG. 2): neuroprotective at four days after the ischemic insult
neuroprotective effect (hippocampal CA1 neurons; dosed three hours and 24 hours after initiation of reperfusion, p<0.02, FIG. 3): neuroprotective effect
inhibition at 10 µM (thrombin): 0%
